Data from patent US8524773B2, “Utilization of dialkylfumarates” (Biogen Idec International GmbH, priority 1998, dated 2013).
Counter-ions that a name gives are not always drawn.

Tests used:
haemagglutination [1] = assay: in vitro haemagglutination; conditions: compared with cyclosporine
Ehrlich ascites tumour = conditions: mice; cited from earlier work
haemagglutination [2] = assay: in vivo haemagglutination; conditions: compared with cyclosporine
isolated monocytes = assay: endotoxin-stimulated TNF-α secretion in isolated monocytes; format: cell-based, human
[3] = system: human mononuclear cells of periphere blood (PBMC cells); assay: endotoxin-stimulated TNF-α secretion in PBMC cells; format: cell-based

O=C(O)/C=C/C(=O)O [fumaric acid]
effect on in vitro haemagglutination (haemagglutination [1]): comparable to that of cyclosporine | growth of the Ehrlich ascites tumour (Ehrlich ascites tumour): inhibits the growth | effect on in vivo haemagglutination (haemagglutination [2]): comparable to that of cyclosporine

COC(=O)/C=C/C(=O)O [methyl hydrogen fumarate]
endotoxin-stimulated TNF-α secretion (isolated monocytes): initially increases | endotoxin-stimulated TNF-α secretion [3]: initially increases
